The results in this text go back to US9987276B2 (Celgene CAR LLC, priority 2008, dated 2018).

Assay [1] has as its target BTK (Homo sapiens (Human), UniProt Q06187). The experiment in a line: Omnia assay for potency assessment against BTK. Type of assay: biochemical. Conditions: [BTK]=5 nM, Omnia assay; read-out: BTK Inhibition (IC50). The method, then: The modified BTK-optimized reagent conditions for the above protocol are:
[BTK]=5 nM, [ATP]=[…], [Y5-Sox]=[…] (ATP KMapp˜[…]).

The target of assay [2] is EGFR-WT (Homo sapiens (Human), UniProt P00533). Nature of the assay: Omnia assay for potency assessment against EGFR (WT).
The mark [3] stands for this setting: read-out: EGFR (wild type inhibition), EGFR wild type.

pIC50: −log10 of the molar value. Where two headings read alike, the source gives them in different places.

BTK, sequence (Q06187 whole entry): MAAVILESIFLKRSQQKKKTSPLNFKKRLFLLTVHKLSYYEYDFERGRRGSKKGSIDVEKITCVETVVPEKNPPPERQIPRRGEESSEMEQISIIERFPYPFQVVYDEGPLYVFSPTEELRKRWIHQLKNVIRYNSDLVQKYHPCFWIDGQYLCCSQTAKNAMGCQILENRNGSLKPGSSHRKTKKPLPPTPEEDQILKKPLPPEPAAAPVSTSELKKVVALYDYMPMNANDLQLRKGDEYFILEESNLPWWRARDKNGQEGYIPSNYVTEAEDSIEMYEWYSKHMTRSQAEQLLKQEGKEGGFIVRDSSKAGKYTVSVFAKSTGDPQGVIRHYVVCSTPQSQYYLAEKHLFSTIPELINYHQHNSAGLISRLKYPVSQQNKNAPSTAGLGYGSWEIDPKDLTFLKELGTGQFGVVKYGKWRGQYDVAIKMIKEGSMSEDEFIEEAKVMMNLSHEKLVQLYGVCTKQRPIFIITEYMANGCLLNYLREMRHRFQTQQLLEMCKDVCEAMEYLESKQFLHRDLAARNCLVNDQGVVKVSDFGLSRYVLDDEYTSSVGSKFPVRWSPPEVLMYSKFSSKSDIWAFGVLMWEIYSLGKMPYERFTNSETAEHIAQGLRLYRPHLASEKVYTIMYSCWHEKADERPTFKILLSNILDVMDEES

With `C=CC(=O)N(C)Cc1ccc(Oc2nc(Nc3cccc(OCCCN4CCCC4=O)c3)ncc2F)cc1` [Compound I-111, N-(4-(5-fluoro-2-(3-(3-(2-oxopyrrolidin-1-yl)propoxy)phenylamino)pyrimidin-4-yloxy)benzyl)-N-methylacrylamide], the values for the pIC50 in assay [1] and in assay [2] were > 8.00 and 6.00 to 7.00, respectively.
On to `C=CC(=O)N1CCC[C@H](Oc2nc(Nc3cccc(OC)c3)ncc2F)C1` [Compound I-179, (S)-1-(3-(5-fluoro-2-(3-methoxyphenylamino)pyrimidin-4-yloxy)piperidin-1-yl)prop-2-en-1-one], for which the pIC50 in assay [1] was 6.00 to 7.00; in assay [2], < 5.00.
Regarding `C=CC(=O)Nc1cccc(Nc2nc(Nc3ccc(OCCOC)cc3)ncc2C#N)c1` [Compound I-109, N-(3-(5-cyano-2-(4-(2-methoxyethoxy)phenylamino)pyrimidin-4-ylamino)phenyl)acrylamide], the pIC50 in assay [1] and in assay [2] (setting [3]) was > 8.00 each time.
Consider `C=CC(=O)Nc1cccc(Nc2nc(Nc3cccnc3)ncc2F)c1` [Compound I-234, N-(3-(5-fluoro-2-(pyridin-3-ylamino)pyrimidin-4-ylamino)phenyl)acrylamide], for which the pIC50 in assay [1] was 5.00 to 6.00; in assay [2] (setting [3]), < 5.00.
As to `C=CC(=O)Nc1cccc(Nc2nc(Nc3ccc(Cl)c(OC)c3)ncc2F)c1` [Compound I-74, N-(3-(5-fluoro-2-(4-chloro-3-methoxyphenylamino)pyrimidin-4-ylamino)phenyl)acrylamide], the pIC50 was > 8.00 in assay [1] and 6.00 to 7.00 in assay [2].
The matching figures for `C=CC(=O)Nc1cccc(N(C(=O)C=C)c2nc(Nc3ccc(OC)nc3)ncc2C#N)c1` [Compound I-171, N-(3-acrylamidophenyl)-N-(5-cyano-2-(6-methoxypyridin-3-ylamino)pyrimidin-4-yl)acrylamide]: > 8.00 and 7.00 to 8.00.
On to `C=CC(=O)Nc1cccc(Nc2nc(Nc3cccc(OCC(O)CO)c3)ncc2F)c1` (centres unmarked) [Compound I-339, N-(3-(2-(3-(2,3-dihydroxypropoxy)phenylamino)-5-fluoropyrimidin-4-ylamino)phenyl)acrylamide], for which the pIC50 in assay [1] and in assay [2] (setting [3]) was > 8.00 throughout.
Regarding `C=CC(=O)Nc1cccc(Nc2nc(NC3CCCN(C(C)=O)C3)ncc2F)c1` (centres unmarked) [Compound I-238, N-(3-(2-(1-acetylpiperidin-3-ylamino)-5-fluoropyrimidin-4-ylamino)phenyl)acrylamide], the pIC50 was 5.00 to 6.00 in assay [1] and < 5.00 in assay [2] (setting [3]).
The matching figures for `C=CC(=O)Nc1cccc(Oc2nc(Nc3cccc(OCC4CCCN(C)C4)c3)ncc2F)c1` (centres unmarked) [Compound I-81, N-(3-(5-fluoro-2-(3-((1-methylpiperidin-3-yl)methoxy)phenylamino)pyrimidin-4-yloxy)phenyl)acrylamide]: > 8.00 and > 8.00.
For `C=C(C)C(=O)Cc1cccc(Nc2nc(Nc3ccc(OCCOC)c(F)c3)ncc2F)c1` [Compound I-328, 1-(3-(5-fluoro-2-(3-fluoro-4-(2-methoxyethoxy)phenylamino)pyrimidin-4-ylamino)phenyl)-3-methylbut-3-en-2-one], the pIC50 in assay [1] and in assay [2] (setting [3]) was > 8.00 in each case.
Regarding `C=CC(=O)Nc1cccc(Nc2nc(Nc3ccc4c(c3)N(C(C)=O)CCO4)ncc2F)c1` [Compound I-112, N-(3-(2-(4-acetyl-2,3-dihydrobenzo[1,4]oxazin-6-yl)amino-5-fluoropyrimidin-4-ylamino)phenyl)acrylamide], the values for the pIC50 in assay [1] and in assay [2] were > 8.00 and 7.00 to 8.00, respectively.
Turning to `C/C=C/C(=O)OCc1cccc(Nc2nc(Nc3ccccc3)ncc2C)c1` [Compound I-246, (E)-3-(5-methyl-2-(phenylamino)pyrimidin-4-ylamino) benzyl but-2-enoate], the values for the pIC50 in assay [1] and in assay [2] (setting [3]) were 7.00 to 8.00 and 5.00 to 6.00, respectively.
Taken in the same sequence, the figures for `C=CC(=O)Nc1cccc(Nc2nc(Nc3ccc(OCC(O)CO)c(F)c3)ncc2F)c1` (centres unmarked) [Compound I-334, N-(3-(2-(4-(2,3-dihydroxypropoxy)-3-fluorophenylamino)-5-fluoropyrimidin-4-ylamino)phenyl)acrylamide] were > 8.00 and > 8.00.
With `Cc1cccc(Nc2nc(Nc3cccc(NC(=O)/C=C/CN4C[C@@H]5C[C@H]4CN5)c3)ncc2F)c1` [Compound I-101, (E)-4-((1S,4S)-2,5-diazabicyclo[2.2.1]heptan-2-yl)-N-(3-(5-fluoro-4-(m-tolylamino)pyrimidin-2-ylamino)phenyl)but-2-enamide], the pIC50 in assay [1] and in assay [2] was 7.00 to 8.00 in each case.
For the compound `C=CC(=O)Nc1cccc(Nc2nc(Nc3ccc(OCCOC)c(F)c3)ncc2C(F)(F)F)c1` [Compound I-352, N-(3-(5-trifluoromethyl-2-(3-fluoro-4-(2-methoxyethoxy)phenylamino)pyrimidin-4-ylamino)phenyl)acrylamide], the pIC50 in assay [1] and in assay [2] (setting [3]) was > 8.00 throughout.
As for `C=CC(=O)N1Cc2ccc(Nc3nc(Nc4cccc(OC)c4)ncc3C(F)(F)F)cc2C1` [Compound I-132, 1-(5-(5-trifluoromethyl-2-(3-methoxyphenylamino)pyrimidin-4-yl)amino-1,3-dihydroisoindol-2-yl)2-propen-1-one], the figures for the pIC50 in assay [1] and in assay [2] were > 8.00 and 7.00 to 8.00, respectively.
The matching figures for `C=C(C#N)C(O)c1ccc(Nc2nc(Nc3ccc(OCCOC)c(F)c3)ncc2F)cc1` (centres unmarked) [Compound I-327, 2-((4-(5-fluoro-2-(3-fluoro-4-(2-methoxyethoxy)phenylamino)pyrimidin-4-ylamino)phenyl)(hydroxy)methyl)acrylonitrile]: > 8.00 and 7.00 to 8.00.
Taken in the same sequence, the figures for `C=CC(=O)N1CC(Nc2nc(Nc3ccc(OC)nc3)ncc2C(C)=O)C1` [Compound I-187, 1-{3-[5-Acetyl-2-(6-methoxy-pyridin-3-ylamino)-pyrimidin-4-ylamino]-azetidin-1-yl}-propenone] were 7.00 to 8.00 and 6.00 to 7.00.
In the case of `C=CC(=O)Nc1cccc(Nc2nc(Nc3ccc4c(c3)CC(=O)N4)ncc2F)c1` [Compound I-181, N-(3-(5-fluoro-2-(2-oxoindolin-5-ylamino)pyrimidin-4-ylamino)phenyl)acrylamide], the pIC50 in assay [1] and in assay [2] (setting [3]) was > 8.00 each time.
Take `C=CC(=O)Nc1cccc(Nc2nc(Nc3cccc(OCC4CCN(C)CC4)c3)ncc2F)c1` [Compound I-82, N-(3-(5-fluoro-2-(3-((1-methylpiperidin-4-yl)methoxy)phenylamino)pyrimidin-4-ylamino)phenyl)-acrylamide]: the pIC50 in assay [1] and in assay [2] (setting [3]) was > 8.00 throughout.
Take `C=CC(=O)N(C)Cc1ccc(Oc2nc(Nc3cccc(OCCCS(C)(=O)=O)c3)ncc2F)cc1` [Compound I-136, N-(4-(5-fluoro-2-(3-(3-(methylsulfonyl)propoxy)phenylamino)pyrimidin-4-yloxy)benzyl)-N-methylacrylamide]: the pIC50 was > 8.00 in assay [1] and 6.00 to 7.00 in assay [2].
The matching figures for `C=CC(=O)Nc1ccc(Nc2nc(Nc3ccc(OCCOC)c(F)c3)ncc2F)cc1` [Compound I-351, N-(4-(5-fluoro-2-(3-fluoro-4-(2-methoxyethoxy)phenylamino)pyrimidin-4-ylamino)phenyl)acrylamide]: > 8.00 and 6.00 to 7.00.
Regarding `C=CC(=O)N(C)Cc1ccc(Oc2nc(Nc3ccc(OC)nc3)ncc2F)cc1` [Compound I-117, N-(4-(5-fluoro-2-(6-methoxypyridin-3-ylamino)pyrimidin-4-yloxy)benzyl)-N-methylacrylamide], the pIC50 is > 8.00 in assay [1] and 5.00 to 6.00 in assay [2] (setting [3]).
With `C=CC(=O)N1CCC(Nc2nc(Nc3ccc(OC)nc3)ncc2F)C1` (centres unmarked) [Compound I-203, 1-(3-(5-fluoro-2-(6-methoxypyridin-3-ylamino)pyrimidin-4-ylamino)pyrrolidin-1-yl)prop-2-en-1-one], the pIC50 in assay [1] was 7.00 to 8.00; in assay [2], 6.00 to 7.00.
In the case of “(E)-4-(dimethylamino)-N-(3-(5-methyl-4-(m-tolylamino)pyrimidin-2-ylamino)phenyl)but-2-enamide [Compound I-360]”, the pIC50 in assay [1] and in assay [2] (setting [3]) was > 8.00 each time.
With `C=CC(=O)N1CCC[C@H](Oc2nc(Nc3ccc(OC)nc3)ncc2F)C1` [Compound I-193, (S)-1-(3-(5-fluoro-2-(6-methoxypyridin-3-ylamino)pyrimidin-4-yloxy)piperidin-1-yl)prop-2-en-1-one], the values for the pIC50 in assay [1] and in assay [2] (setting [3]) were 6.00 to 7.00 and 5.00 to 6.00, respectively.
Turning to `C=CC(=O)Nc1cccc(Nc2nc(Nc3ccc(OC(C)(C)CO)cc3)ncc2F)c1` [Compound I-93, N-(3-(5-fluoro-2-(4-(1-hydroxy-2-methylpropan-2-yloxy)phenylamino)pyrimidin-4-ylamino)phenyl)acrylamide], the pIC50 in assay [1] is > 8.00; in assay [2] it was 7.00 to 8.00.
Taken in the same sequence, the figures for `C=CC(=O)N1CCOc2ccc(Nc3nc(Nc4ccc(OCCOC)cc4)ncc3F)cc21` [Compound I-141, 1-(6-(5-fluoro-2-(4-(2-methoxyethoxy)phenylamino)pyrimidin-4-ylamino)-2H-benzo[b][1,4]oxazin-4(3H)-yl)prop-2-en-1-one] were > 8.00 and 7.00 to 8.00.
Turning to `CC(C)=CC(=O)c1cccc(Nc2nc(Nc3cccc(OC(F)(F)F)c3)ncc2F)c1` [Compound I-223, 1-(3-(5-fluoro-2-(3-(trifluoromethoxy)phenylamino)pyrimidin-4-ylamino)phenyl)-3-methylbut-2-en-1-one], the values for the pIC50 in assay [1] and in assay [2] (setting [3]) were < 5.00 and 5.00 to 6.00, respectively.
With `C=CC(=O)Nc1cccc(Nc2nc(Nc3ccc(OCCN4CCCC4=O)cc3)ncc2F)c1` [Compound I-92, N-(3-(5-fluoro-2-(4-(2-(2-oxopyrrolidin-1-yl)ethoxy)phenylamino)pyrimidin-4-ylamino)phenyl)acrylamide], the values for the pIC50 in assay [1] and in assay [2] were > 8.00 and 7.00 to 8.00, respectively.
Taken in the same sequence, the figures for `C=CC(=O)Nc1cccc(Nc2nc(Nc3ccc4c(c3)OCCO4)ncc2F)c1` [Compound I-349] were > 8.00 and 7.00 to 8.00.
